Laboratory results from patent US5714494A, “Xanthines in the 7th position with a benzyl acetic acid moiety” (Bayer Aktiengesellschaft, priority 1995, dated 1998).

Columns and labels:
[1] = tested on: intestinal triglyceride absorption; assay: Inhibition of intestinal triglyceride absorption in vivo (rats); parameters: species or system male Wistar rats; settings: po; for Absorption ED50 or % inhibition: 2 h
Method: The substances which are to be investigated for their triglyceride absorption-inhibiting action in vivo are administered orally to male Wistar rats having a body weight of between 170 and 230 g. For this purpose, the animals are divided into groups of 6 animals 18 hours before administration of the substance and the feed is then withdrawn from them. Drinking water is available to the animals ad libitum. The animals of the control groups receive an aqueous tragacanth suspension or a tragacanth suspension which contains olive oil. The tragacanth-olive oil suspension is prepared using an Ultra-Turrax. The substances to be investigated are suspended directly before substance administration in a corresponding tragacanth-olive oil suspension, also using an Ultra-Turrax.
Before stomach tube application, blood is taken from each rat by puncture of the retroorbital venous plexus to determine the basal serum triglyceride content. The tragacanth suspension, the tragacanth-olive oil suspensions without substance (control animals) and the substances suspended in a corresponding tragacanth-olive oil suspension are then administered to the fasting animals using a stomach tube. Further taking of blood for the determination of the postprandial serum triglyceride rise is carried out, as a rule, 1,2 and 3 hours after stomach tube application.
The blood samples are centrifuged and, after recovering the serum, the triglycerides are determined photometrically using an EPOS analyzer 5060 (Eppendorf Geratebau, Netheler & Hinz GmbH, Hamburg). The triglycerides are determined by fully enzymatic means using a commercially available UV test.
The postprandial serum triglyceride increase is determined by subtraction of the triglyceride preliminary value of each animal from its corresponding postprandial triglyceride concentrations (1,2 and 3 hours after administration).
The differences (in mmol/l) at each time 1, 2 and 3 hours) are averaged in the groups, and the average values of the serum triglyceride increase (ΔTG) of the substance-treated animals are compared with the animals which only received the tragacanth-oil suspension.
Likewise, the serum triglyceride course of the control animals which received only tragacanth is calculated. The substance effect at each time (1, 2 or 3 hours) is determined as follows and given in Δ% of the oil-loaded control. [formula]
Effect of 10 mg of test substance/kg of body weight p.o. on the triglyceride increase (Δ%) 2 h after a triglyceride loading in the serum of fasting rats. The serum triglyceride increase of fat-loaded control animals based on the serum triglyceride level of tragacanth control animals corresponds to 100%. n=6 animals per group.
Statistical assessment was carried out using student3 s t test after prior checking of the variances for homogeneity.

[2] = tested on: ApoB-100-associated lipoproteins; assay: Inhibition of the release of ApoB-100-associated lipoproteins from HepG2 cells (immunoassay for human LDL); format: cell-based; settings: light absorption 450 nm vs solvent control
Method: The test for detecting inhibition of the release of ApoB-100-associated lipoproteins from liver cells was carried out in vitro using cultured liver cells, preferably using cells of the human line HepG2. These cells are grown under standard conditions in medium for the culture of eucaryotic cells, preferably in RPMI 1640 using 10% foetal calf serum. HepG2 cells synthesize and secrete into the culture supernatant ApoB-100-associated lipoprotein particles which in principle are synthesized in a similar manner to the VLDL and LDL particles which are to be found in the plasma.
These particles can be detected using an immunoassay for human LDL. This immunoassay is carried out using antibodies which have been induced in the rabbit against human LDL under standard conditions. The anti-LDL antibodies (rabbit anti-LDL-Ab) were purified by affinity chromatography on an immunosorbent using human LDL. These purified rabbit anti-LDL Ab are adsorbed on the surface of plastic. Expediently, this adsorption is carried out on the plastic surface of microtitre plates having 96 wells, preferably on MaxiSorp plates. If ApoB-100-associated particles are present in the supernatant of Hep-G2 cells, these can bind to the insolubilized rabbit anti-LDL Ab, and an immune complex is formed which is bound to the plastic surface. Unbound proteins are removed by washing. The immune complex located on the plastic surface is detected using monoclonal antibodies which have been induced against human LDL according to standard conditions and purified. These antibodies were conjugated with the enzyme peroxidase. Peroxidase converts the colourless substrate TMB into a coloured product in the presence of H2 O2. After acidification of the reaction mixture using H2 SO4, the specific light absorption at 450 mn is determined, which is a measure of the amount of ApoB-100-associated particles which have been secreted into the culture supernatant by the HepG2 cells.
The IC50 value indicates at which substance concentration the light absorption is inhibited by 50% in comparison with the control (solvent control without substance).

[3] = Homo sapiens, HepG2, HepG2 cells

Structure (SMILES)	Absorption ED50 or % inhibition [1] [mg/kg]	IC50 [2, 3] [nM]	ED50 ([1]; Rattus norvegicus, serum triglyceride increase 2 h after triglyceride loading, fasting rats, read-out: Absorption ED50 or % inhibition) [mg/kg]	IC50 ([2]; HepG2 cells) [nM]
Cn1c(=O)c2c(nc(-c3ccccn3)n2Cc2ccc(C(C(=O)N[C@@H](CO)c3ccccc3)C3CCCC3)cc2)n(C)c1=O (stereo partly drawn) [Example 151]	6	34		
COc1ccccc1Cc1nc2c(c(=O)n(C)c(=O)n2C)n1Cc1ccc(C(C(=O)N[C@@H](CO)c2ccccc2)C2CCCC2)cc1 (stereo partly drawn) [Example 197]	3	43		
Cn1c(=O)c2c(nc(Cc3ccccc3)n2Cc2ccc(C(C(=O)N[C@@H](CO)c3ccccc3)C3CCCCCC3)cc2)n(C)c1=O (stereo partly drawn) [Example 174]	< 2	5		
Cn1c(=O)c2c(nc(C=Cc3ccccc3)n2Cc2ccc(C(C(=O)N[C@@H](CO)c3ccccc3)C3CCCC3)cc2)n(C)c1=O (stereo partly drawn) [Example 167]	> 2	19		
Cc1ccccc1Cc1nc2c(c(=O)n(C)c(=O)n2C)n1Cc1ccc(C(C(=O)N[C@@H](CO)c2ccccc2)C2CCCC2)cc1 (stereo partly drawn) [Example 178]	3	64		
Cc1cccc(Cc2nc3c(c(=O)n(C)c(=O)n3C)n2Cc2ccc(C(C(=O)N[C@@H](CO)c3ccccc3)C3CCCC3)cc2)c1 (stereo partly drawn) [Example 179]	> 3	5		
Cn1c(=O)c2c(nc(Cc3cccc(Cl)c3)n2Cc2ccc(C(C(=O)N[C@@H](CO)c3ccccc3)C3CCCC3)cc2)n(C)c1=O (stereo partly drawn) [Example 191]	> 3	14		
Cc1ccsc1-c1nc2c(c(=O)n(C)c(=O)n2C)n1Cc1ccc(C(C(=O)N[C@@H](CO)c2ccccc2)C2CCCC2)cc1 (stereo partly drawn) [Example 160]	3	5		
Cn1c(=O)c2c(nc(-c3ccc(Cl)cc3)n2Cc2ccc(C(C(=O)N[C@@H](CO)c3ccccc3)C3CCCC3)cc2)n(C)c1=O (stereo partly drawn) [Example 140]	> 3	10		
Cn1c(=O)c2c(nc(CC3CCCCC3)n2Cc2ccc(C(C(=O)N[C@@H](CO)c3ccccc3)C3CCCC3)cc2)n(C)c1=O (stereo partly drawn) [Example 123]		8	2	
Cn1c(=O)c2c(nc(-c3ccc(C(F)(F)F)cc3)n2Cc2ccc(C(C(=O)N[C@@H](CO)c3ccccc3)C3CCCC3)cc2)n(C)c1=O (stereo partly drawn) [Example 143]	> 3	11		
COc1ccc(-c2nc3c(c(=O)n(C)c(=O)n3C)n2Cc2ccc(C(C(=O)N[C@@H](CO)c3ccccc3)C3CCCC3)cc2)cc1 (stereo partly drawn) [Example 146]	> 3	6		
Cc1ccccc1-c1nc2c(c(=O)n(C)c(=O)n2C)n1Cc1ccc(C(C(=O)N[C@@H](CO)c2ccccc2)C2CCCC2)cc1 (stereo partly drawn) [Example 132]		743		
Cn1c(=O)c2c(nc(-c3cc(Br)cs3)n2Cc2ccc(C(C(=O)N[C@@H](CO)c3ccccc3)C3CCCC3)cc2)n(C)c1=O (stereo partly drawn) [Example 164]		12		
Cc1nc2c(c(=O)n(C)c(=O)n2C)n1Cc1ccc(C(C(=O)N[C@@H](CO)c2ccccc2)C2CCCC2)cc1 (stereo partly drawn) [Example 119]		11		
Cn1c(=O)c2c(nc(Cc3ccc(F)cc3)n2Cc2ccc(C(C(=O)N[C@@H](CO)c3ccccc3)C3CCCC3)cc2)n(C)c1=O (stereo partly drawn) [Example 194]		8		

Structure (SMILES)	Absorption ED50 or % inhibition [1] [mg/kg]	IC50 [2, 3] [nM]	ED50 ([1]; Rattus norvegicus, serum triglyceride increase 2 h after triglyceride loading, fasting rats, read-out: Absorption ED50 or % inhibition) [mg/kg]	IC50 ([2]; HepG2 cells) [nM]
Cn1c(=O)c2c(nc(-c3cccnc3)n2Cc2ccc(C(C(=O)N[C@@H](CO)c3ccccc3)C3CCCC3)cc2)n(C)c1=O (stereo partly drawn) [Example 152]		169		
CCc1nc2c(c(=O)n(CC)c(=O)n2CC)n1Cc1ccc(C(C(=O)N[C@@H](CO)c2ccccc2)C2CCCC2)cc1 (stereo partly drawn) [Example 215]		3		
Cc1cccc(-c2nc3c(c(=O)n(C)c(=O)n3C)n2Cc2ccc(C(C(=O)N[C@@H](CO)c3ccccc3)C3CCCC3)cc2)c1 (stereo partly drawn) [Example 133]	2	5		
Cn1c(=O)c2c(nc(-c3cccs3)n2Cc2ccc(C(C(=O)N[C@@H](CO)c3ccccc3)C3CCCC3)cc2)n(C)c1=O (single isomer, unassigned) [Example 159]				25
COc1cccc(Cc2nc3c(c(=O)n(C)c(=O)n3C)n2Cc2ccc(C(C(=O)N[C@@H](CO)c3ccccc3)C3CCCC3)cc2)c1 (stereo partly drawn) [Example 198]		5		
Cc1ccc(-c2nc3c(c(=O)n(C)c(=O)n3C)n2Cc2ccc(C(C(=O)N[C@@H](CO)c3ccccc3)C3CCCC3)cc2)s1 (stereo partly drawn) [Example 163]		131		
COc1ccc(Cc2nc3c(c(=O)n(C)c(=O)n3C)n2Cc2ccc(C(C(=O)N[C@@H](CO)c3ccccc3)C3CCCC3)cc2)cc1 (stereo partly drawn) [Example 201]	> 3	11		
Cn1c(=O)c2c(nc(Cc3ccc(F)cc3)n2Cc2ccc(C(C(=O)N[C@@H](CO)c3ccccc3)C3CCCC3)cc2)n(C)c1=O (single isomer, unassigned) [Example 196]				61
Cn1c(=O)c2c(nc(Cc3ccccc3Cl)n2Cc2ccc(C(C(=O)N[C@@H](CO)c3ccccc3)C3CCCC3)cc2)n(C)c1=O (stereo partly drawn) [Example 188]		23		
Cn1c(=O)c2c(nc(Cc3ccccc3)n2Cc2ccc(C(C(=O)N[C@@H](CO)c3ccccc3)C3CCCCC3)cc2)n(C)c1=O (stereo partly drawn) [Example 171]		2		
COc1cccc(Cc2nc3c(c(=O)n(C)c(=O)n3C)n2Cc2ccc(C(C(=O)N[C@@H](CO)c3ccccc3)C3CCCC3)cc2)c1 (single isomer, unassigned) [Example 199]				5
CN(C)c1ccc(-c2nc3c(c(=O)n(C)c(=O)n3C)n2Cc2ccc(C(C(=O)N[C@@H](CO)c3ccccc3)C3CCCC3)cc2)cc1 (stereo partly drawn) [Example 149]	> 3	9		
Cc1cccc(Cc2nc3c(c(=O)n(C)c(=O)n3C)n2Cc2ccc(C(C(=O)N[C@@H](CO)c3ccccc3)C3CCCC3)cc2)c1 (single isomer, unassigned) [Example 181]				10
Cn1c(=O)c2c(nc(Cc3ccccc3)n2Cc2ccc(C(C(=O)N[C@@H](CO)c3ccccc3)C3CCCCC3)cc2)n(C)c1=O (single isomer, unassigned) [Example 172]		1		
Cc1ccc(Cc2nc3c(c(=O)n(C)c(=O)n3C)n2Cc2ccc(C(C(=O)N[C@@H](CO)c3ccccc3)C3CCCC3)cc2)cc1 (stereo partly drawn) [Example 182]	2	12		
Cn1c(=O)c2c(nc(Cc3ccccc3)n2Cc2ccc(C(C(=O)N[C@@H](CO)c3ccccc3)C3CCCC3)cc2)n(C)c1=O (stereo partly drawn) [Example 168]		16		
